Where “and” joins values, the source holds several entries; their conditions need not be identical. Identical values can stand only once. Where a SMILES comes first, the peptide text is derived from it. The star is where a group is joined. Cbz = O=C(OCc1ccccc1)*
Columns and labels:
Test in all cases: cells
[1] = test system: GAK; format: functional, cell-based, Homo sapiens;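 note: cell growth inhibition read out by a cell viability assay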
Description: SANGER: Inhibition of human GAK cell growth in a cell viability assay.

[2] = test system: IST-MEL1; format: functional, cell-based, Homo sapiens;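 note: growth inhibition of the cell line, read out with a cell viability assay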
Description: SANGER: Inhibition of human IST-MEL1 cell growth in a cell viability assay.

[3] = test system: SHP77; format: functional, cell-based, Homo sapiens, SHP-77;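 note: growth inhibition of human SHP-77 cells measured by a cell viability assay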
Description: SANGER: Inhibition of human SHP-77 cell growth in a cell viability assay.

[4] = test system: BT-474; format: functional, cell-based, Homo sapiens
Description: SANGER: Inhibition of human BT-474 cell growth in a cell viability assay.

[5] = test system: L-363; format: functional, cell-based, Homo sapiens
Description: SANGER: Inhibition of human L-363 cell growth in a cell viability assay.

[6] = test system: LB2241-RCC; format: functional, cell-based, Homo sapiens;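 note: cell viability assay measuring how strongly the cultured human renal carcinoma line is prevented from growing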
Description: SANGER: Inhibition of human LB2241-RCC cell growth in a cell viability assay.

[7] = test system: SF-126; format: functional, cell-based, Homo sapiens;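 note: growth inhibition of human SF126 cells, read out with a cell viability assay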
Description: SANGER: Inhibition of human SF126 cell growth in a cell viability assay.

[8] = test system: K562; format: functional, cell-based, Homo sapiens
Description: SANGER: Inhibition of human K-562 cell growth in a cell viability assay.

[9] = test system: SK-LMS-1; format: functional, cell-based, Homo sapiens;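 note: growth inhibition of human SK-LMS-1 cells, read out with a cell viability assay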
Description: SANGER: Inhibition of human SK-LMS-1 cell growth in a cell viability assay.

[10] = test system: HOP-62; format: functional, cell-based, Homo sapiens;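 note: cell growth inhibition determined with a viability assay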
Description: SANGER: Inhibition of human HOP-62 cell growth in a cell viability assay.

[11] = test system: no-10; format: functional, cell-based, Homo sapiens;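 note: growth inhibition of no-10 cells, read out with a cell viability assay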
Description: SANGER: Inhibition of human no-10 cell growth in a cell viability assay.

[12] = test system: GI-1; format: functional, cell-based, Homo sapiens;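 note: growth inhibition of human GI-1 cells, measured with a cell viability readout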
Description: SANGER: Inhibition of human GI-1 cell growth in a cell viability assay.

[13] = test system: HCC1187; format: functional, cell-based, Homo sapiens;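 note: growth inhibition of HCC1187 cells, read out with a cell viability assay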
Description: SANGER: Inhibition of human HCC1187 cell growth in a cell viability assay.

[14] = test system: ES4; format: functional, cell-based, Homo sapiens;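 note: growth inhibition of human ES4 cells, read out by a cell viability assay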
Description: SANGER: Inhibition of human ES4 cell growth in a cell viability assay.

[15] = test system: A704; format: functional, cell-based; conditions: Homo sapiens;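 note: growth inhibition of human A704 cells, read out with a cell viability assay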
Description: SANGER: Inhibition of human A704 cell growth in a cell viability assay.

[16] = test system: NCI-H1299; format: functional, cell-based; conditions: Homo sapiens;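 note: growth inhibition of human NCI-H1299 cells, read out by a cell viability assay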
Description: SANGER: Inhibition of human NCI-H1299 cell growth in a cell viability assay.

[17] = test system: OCI-AML2; format: functional, cell-based, Homo sapiens;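 note: growth inhibition of OCI-AML2 cells, read out with a cell viability assay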
Description: SANGER: Inhibition of human OCI-AML2 cell growth in a cell viability assay.

[18] = test system: LU-139; format: functional, cell-based, Homo sapiens
Description: SANGER: Inhibition of human LU-139 cell growth in a cell viability assay.

[19] = test system: HT-144; format: functional, cell-based, Homo sapiens
Description: SANGER: Inhibition of human HT-144 cell growth in a cell viability assay.

[20] = test system: SCC-15; format: functional, cell-based, Homo sapiens;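 note: growth inhibition of SCC-15 cells, read out with a cell viability assay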
Description: SANGER: Inhibition of human SCC-15 cell growth in a cell viability assay.

[21] = test system: 697; format: functional, cell-based, Homo sapiens
Description: SANGER: Inhibition of human 697 cell growth in a cell viability assay.

[22] = test system: SW 962; format: functional, cell-based, Homo sapiens;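 note: growth inhibition of human SW962 cells, read out by a cell viability assay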
Description: SANGER: Inhibition of human SW962 cell growth in a cell viability assay.

[23] = test system: TK-10; format: functional, cell-based, Homo sapiens;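 note: growth inhibition of TK-10 cells, read out in a cell viability assay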
Description: SANGER: Inhibition of human TK10 cell growth in a cell viability assay.

[24] = test system: OMC-1; format: functional, cell-based, Homo sapiens;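 note: growth inhibition of the OMC-1 cell line, measured by a cell viability assay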
Description: SANGER: Inhibition of human OMC-1 cell growth in a cell viability assay.

[25] = test system: MOLT-4; format: functional, cell-based, Homo sapiens;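 note: growth inhibition of MOLT-4 cells, determined with a cell viability readout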
Description: SANGER: Inhibition of human MOLT-4 cell growth in a cell viability assay.

[26] = test system: SW684; format: functional, cell-based, Homo sapiens; conditions: read-out: IC50;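 note: growth inhibition of human SW684 cells, measured by a cell viability assay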
Description: SANGER: Inhibition of human SW684 cell growth in a cell viability assay.

[27] = test system: RKO; format: functional, cell-based, Homo sapiens;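 note: growth inhibition of human RKO cells, read out with a cell viability assay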
Description: SANGER: Inhibition of human RKO cell growth in a cell viability assay.

[28] = test system: LAMA-84; format: functional, cell-based, Homo sapiens;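 note: growth inhibition of LAMA-84 cells, read out with a cell viability assay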
Description: SANGER: Inhibition of human LAMA-84 cell growth in a cell viability assay.

[29] = test system: A3-KAW; format: functional, cell-based, Homo sapiens;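 note: growth inhibition of human A3-KAW cells, read out with a cell viability assay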
Description: SANGER: Inhibition of human A3-KAW cell growth in a cell viability assay.

[30] = test system: DEL; format: functional, cell-based, Homo sapiens;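 note: growth inhibition of the human DEL cell line, read out with a cell viability assay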
Description: SANGER: Inhibition of human DEL cell growth in a cell viability assay.

[31] = test system: COLO-684; format: functional, cell-based, Homo sapiens
Description: SANGER: Inhibition of human COLO-684 cell growth in a cell viability assay.

[32] = test system: RPMI-8866; format: functional, cell-based, Homo sapiens
Description: SANGER: Inhibition of human RPMI-8866 cell growth in a cell viability assay.

[33] = test system: HT; format: functional, cell-based, Homo sapiens
Description: SANGER: Inhibition of human HT cell growth in a cell viability assay.

[34] = test system: U-266; format: functional, cell-based, Homo sapiens
Description: SANGER: Inhibition of human U-266 cell growth in a cell viability assay.

[35] = test system: EOL1; format: functional, cell-based, Homo sapiens;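 note: growth inhibition of EoL-1 cells, read out by a cell viability assay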
Description: SANGER: Inhibition of human EoL-1-cell cell growth in a cell viability assay.

[36] = test system: CAS-1; format: functional, cell-based, Homo sapiens;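 note: growth inhibition of CAS-1 cells, measured with a cell viability assay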
Description: SANGER: Inhibition of human CAS-1 cell growth in a cell viability assay.

[37] = test system: DJM-1; format: functional, cell-based, Homo sapiens;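 note: growth inhibition of human DJM-1 cells, read out by a cell viability assay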
Description: SANGER: Inhibition of human DJM-1 cell growth in a cell viability assay.

[38] = test system: SK-PN-DW; format: functional, cell-based, Homo sapiens;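 note: growth inhibition measured with a viability assay on these cells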
Description: SANGER: Inhibition of human SK-PN-DW cell growth in a cell viability assay.

[39] = test system: ES1; format: functional, cell-based, Homo sapiens;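 note: growth inhibition of ES1 cells, read out with a cell viability assay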
Description: SANGER: Inhibition of human ES1 cell growth in a cell viability assay.

[40] = test system: TE-1; format: functional, cell-based, Homo sapiens;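 note: growth inhibition of the human TE-1 cell line, read out with a cell viability assay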
Description: SANGER: Inhibition of human TE-1 cell growth in a cell viability assay.

[41] = test system: NCI-H2126; format: functional, cell-based, Homo sapiens;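 note: growth inhibition of the cancer cell line, determined with a cell viability readout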
Description: SANGER: Inhibition of human NCI-H2126 cell growth in a cell viability assay.

[42] = test system: RH-1; format: functional, cell-based, Homo sapiens;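 note: growth inhibition of human RH-1 cells, read out with a cell viability assay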
Description: SANGER: Inhibition of human RH-1 cell growth in a cell viability assay.

[43] = test system: MZ1-PC; format: functional, cell-based, Homo sapiens;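 note: cell viability assay measuring growth inhibition of human MZ1-PC cells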
Description: SANGER: Inhibition of human MZ1-PC cell growth in a cell viability assay.

[44] = test system: SK-MEL-2; format: functional, cell-based, Homo sapiens;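 note: growth inhibition of human SK-MEL-2 cells measured with a cell viability assay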
Description: SANGER: Inhibition of human SK-MEL-2 cell growth in a cell viability assay.

[45] = test system: LS-123; format: functional, cell-based, Homo sapiens
Description: SANGER: Inhibition of human LS-123 cell growth in a cell viability assay.

[46] = test system: J-RT3-T3-5; format: functional, cell-based, Homo sapiens;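 note: cell viability assay measuring growth inhibition of human J-RT3-T3-5 cells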
Description: SANGER: Inhibition of human J-RT3-T3-5 cell growth in a cell viability assay.

[47] = test system: LB771-HNC; format: functional, cell-based; conditions: Homo sapiens;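 note: growth inhibition of LB771-HNC human cells, read out with a cell viability assay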
Description: SANGER: Inhibition of human LB771-HNC cell growth in a cell viability assay.

[48] = test system: MMAC-SF; format: functional, cell-based; conditions: Homo sapiens;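 note: growth inhibition of human MMAC-SF cells, read out with a cell viability assay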
Description: SANGER: Inhibition of human MMAC-SF cell growth in a cell viability assay.

[49] = test system: OCUB-M; format: functional, cell-based; conditions: Homo sapiens;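 note: growth inhibition of the cancer cell line, read out through a cell viability assay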
Description: SANGER: Inhibition of human OCUB-M cell growth in a cell viability assay.

[50] = test system: LB2518-MEL; format: functional, cell-based; conditions: Homo sapiens;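 note: growth inhibition of human LB2518-MEL cells, measured with a cell viability assay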
Description: SANGER: Inhibition of human LB2518-MEL cell growth in a cell viability assay.

[51] = test system: SH-4; format: functional, cell-based; conditions: Homo sapiens;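 note: growth inhibition of SH-4 cells, read out with a cell viability assay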
Description: SANGER: Inhibition of human SH-4 cell growth in a cell viability assay.

Measured: IC50

CC(C)C[C@@H](C=O)NC(=O)[C@H](CC(C)C)NC(=O)[C@H](CC(C)C)NC(=O)OCc1ccccc1 [MG-132] (Cbz-Leu-Leu-Leu-aldehyde)
> 1000 nM and 932 nM: [27]; rko
990 nM and > 1000 nM: [7]; sf-126
193 nM and > 1000 nM: [9]; sk-lms-1
89.1 nM and 608 nM: [11]
142 nM and 871 nM: [6]; lb2241-rcc
232 nM and > 1000 nM: [38]; sk-pn-dw
487 nM: [15]
139 nM and 334 nM: [19]; ht-144
109 nM and > 1000 nM: [10]; hop-62
907 nM and > 1000 nM: [31]; colo-684
451 nM and > 1000 nM: [40]; te-1
627 nM and > 1000 nM: [41]; nci-h2126
155 nM and > 1000 nM: [36]; cas-1
254 nM and > 1000 nM: [23]; tk-10
> 1000 nM: [2]; ist-mel1 | [3]; shp-77 | [4]; bt-474 | [5]; Homo sapiens, L-363 | [5]; l-363 | [8]; k562 | [12]; gi-1 | [13]; hcc1187 | [14]; es4 | [16] | [17]; oci-aml2 | [18]; lu-139 | [20]; scc-15 | [21] | [22]; sw 962 | [24]; omc-1 | [25]; molt-4 | [26]; sw684 | [29]; a3-kaw | [30]; del | [32]; Homo sapiens, RPMI-8866 | [32]; rpmi-8866 | [33]; ht | [34]; u-266 | [35]; Homo sapiens, EOL1 | [35]; eol1 | [37]; djm-1 | [39]; es1 | [42]; rh-1 | [43]; Homo sapiens, MZ1-PC | [43]; mz1-pc | [44]; sk-mel-2 | [45]; ls-123 | [46]; j-rt3-t3-5
205 nM and > 1000 nM: [1]; gak
219 nM and > 1000 nM: [28]; lama-84

CO[C@@H]1[C@H](N(C)C(=O)c2ccccc2)C[C@H]2O[C@]1(C)n1c3ccccc3c3c4c(c5c6ccccc6n2c5c31)C(=O)NC4 [MIDOSTAURIN]
> 512 nM: [17]; Homo sapiens, OCI-AML2 | [20]; Homo sapiens, SCC-15 | [22]; Homo sapiens, SW 962 | [31]; Homo sapiens, COLO-684
353 nM: [9]; Homo sapiens, SK-LMS-1
182 nM: [36]; Homo sapiens, CAS-1
319 nM: [12]; Homo sapiens, GI-1
181 nM: [10]; Homo sapiens, HOP-62

COc1ccc(N(C(=O)Oc2c(C)cccc2C)c2ccnc(Nc3ccc(N4CCN(C)CC4)cc3)n2)c(OC)c1
> 5120 nM: [1]; Homo sapiens, GAK | [2]; Homo sapiens, IST-MEL1 | [3]; Homo sapiens, SHP77 | [4]; Homo sapiens, BT-474 | [5]; Homo sapiens, L-363 | [6]; Homo sapiens, LB2241-RCC | [9]; Homo sapiens, SK-LMS-1 | [11]; Homo sapiens | [12]; Homo sapiens, GI-1 | [13]; Homo sapiens, HCC1187 | [14]; Homo sapiens, ES4 | [17]; Homo sapiens, OCI-AML2 | [18]; Homo sapiens, LU-139 | [20]; Homo sapiens, SCC-15 | [47] | [24]; Homo sapiens, OMC-1 | [25]; Homo sapiens, MOLT-4 | [48] | [49] | [27]; Homo sapiens, RKO | [29]; Homo sapiens, A3-KAW | [30]; Homo sapiens, DEL | [31]; Homo sapiens, COLO-684 | [32]; Homo sapiens, RPMI-8866 | [33]; Homo sapiens, HT | [34]; Homo sapiens, U-266 | [37]; Homo sapiens, DJM-1 | [38]; Homo sapiens, SK-PN-DW | [39]; Homo sapiens, ES1 | [40]; Homo sapiens, TE-1 | [41]; Homo sapiens, NCI-H2126 | [42]; Homo sapiens, RH-1 | [44]; Homo sapiens, SK-MEL-2 | [46]; Homo sapiens, J-RT3-T3-5
< 20 nM: [8]; Homo sapiens, K562 | [15] | [28]; Homo sapiens, LAMA-84 | [35]; Homo sapiens, EOL1
1450 nM: [19]; Homo sapiens, HT-144
2120 nM: [51]
4400 nM: [36]; Homo sapiens, CAS-1
1080 nM: [23]; Homo sapiens, TK-10
326 nM: [26]; Homo sapiens, SW684
46.7 nM: [50]
916 nM: [10]; Homo sapiens, HOP-62
4360 nM: [45]; Homo sapiens, LS-123
1730 nM: [7]; Homo sapiens, SF-126
227 nM: [43]; Homo sapiens, MZ1-PC
1340 nM: [22]; Homo sapiens, SW 962
3400 nM: [21]; Homo sapiens

NC(=O)c1cccc(-c2cc(Nc3ccc(OC(F)(F)F)cc3)ncn2)c1
361 nM: [8]; Homo sapiens, K562
> 1280 nM: [1]; Homo sapiens, GAK | [2]; Homo sapiens, IST-MEL1 | [3]; Homo sapiens, SHP77 | [4]; Homo sapiens, BT-474 | [5]; Homo sapiens, L-363 | [6]; Homo sapiens, LB2241-RCC | [7]; Homo sapiens, SF-126 | [9]; Homo sapiens, SK-LMS-1 | [10]; Homo sapiens, HOP-62 | [11]; Homo sapiens | [12]; Homo sapiens, GI-1 | [13]; Homo sapiens, HCC1187 | [14]; Homo sapiens, ES4 | [15] | [17]; Homo sapiens, OCI-AML2 | [18]; Homo sapiens, LU-139 | [19]; Homo sapiens, HT-144 | [20]; Homo sapiens, SCC-15 | [21]; Homo sapiens | [22]; Homo sapiens, SW 962 | [23]; Homo sapiens, TK-10 | [47] | [24]; Homo sapiens, OMC-1 | [25]; Homo sapiens, MOLT-4 | [48] | [49] | [26]; Homo sapiens, SW684 | [27]; Homo sapiens, RKO | [29]; Homo sapiens, A3-KAW | [30]; Homo sapiens, DEL | [31]; Homo sapiens, COLO-684 | [50] | [32]; Homo sapiens, RPMI-8866 | [33]; Homo sapiens, HT | [34]; Homo sapiens, U-266 | [35]; Homo sapiens, EOL1 | [36]; Homo sapiens, CAS-1 | [37]; Homo sapiens, DJM-1 | [38]; Homo sapiens, SK-PN-DW | [39]; Homo sapiens, ES1 | [40]; Homo sapiens, TE-1 | [41]; Homo sapiens, NCI-H2126 | [51] | [42]; Homo sapiens, RH-1 | [43]; Homo sapiens, MZ1-PC | [44]; Homo sapiens, SK-MEL-2 | [45]; Homo sapiens, LS-123 | [46]; Homo sapiens, J-RT3-T3-5
163 nM: [28]; Homo sapiens, LAMA-84

CC1(C)CCC(c2ccc(Cl)cc2)=C(CN2CCN(c3ccc(C(=O)NS(=O)(=O)c4ccc(N[C@H](CCN5CCOCC5)CSc5ccccc5)c(S(=O)(=O)C(F)(F)F)c4)cc3)CC2)C1 [NAVITOCLAX]
592 nM: [28]; Homo sapiens, LAMA-84
205 nM: [18]; Homo sapiens, LU-139
1860 nM: [24]; Homo sapiens, OMC-1
108 nM: [21]; Homo sapiens
608 nM: [46]; Homo sapiens, J-RT3-T3-5
6.69 nM: [35]; Homo sapiens, EOL1
1350 nM: [14]; Homo sapiens, ES4
152 nM: [25]; Homo sapiens, MOLT-4
> 2000 nM: [1]; Homo sapiens, GAK | [2]; Homo sapiens, IST-MEL1 | [3]; Homo sapiens, SHP77 | [4]; Homo sapiens, BT-474 | [5]; Homo sapiens, L-363 | [6]; Homo sapiens, LB2241-RCC | [7]; Homo sapiens, SF-126 | [8]; Homo sapiens, K562 | [11]; Homo sapiens | [12]; Homo sapiens, GI-1 | [13]; Homo sapiens, HCC1187 | [16] | [17]; Homo sapiens, OCI-AML2 | [19]; Homo sapiens, HT-144 | [20]; Homo sapiens, SCC-15 | [22]; Homo sapiens, SW 962 | [23]; Homo sapiens, TK-10 | [47] | [48] | [49] | [26]; Homo sapiens, SW684 | [27]; Homo sapiens, RKO | [29]; Homo sapiens, A3-KAW | [31]; Homo sapiens, COLO-684 | [50] | [32]; Homo sapiens, RPMI-8866 | [33]; Homo sapiens, HT | [34]; Homo sapiens, U-266 | [36]; Homo sapiens, CAS-1 | [37]; Homo sapiens, DJM-1 | [38]; Homo sapiens, SK-PN-DW | [39]; Homo sapiens, ES1 | [40]; Homo sapiens, TE-1 | [41]; Homo sapiens, NCI-H2126 | [51] | [42]; Homo sapiens, RH-1 | [43]; Homo sapiens, MZ1-PC | [44]; Homo sapiens, SK-MEL-2 | [45]; Homo sapiens, LS-123
1750 nM: [30]; Homo sapiens, DEL
427 nM: [15]

Source: ChEMBL document CHEMBL1201861, “Genomics of Drug Sensitity in Cancer screening data, Wellcome Trust Sanger Institute”
